Results: ChEMBL document CHEMBL1201862, “PubChem BioAssay data set” (2004)
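Exposure lasted 48 hours, with cells grown in 96-well plates and compounds tested at five concentrations. At the GI50, growth is halved.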 Activity calls are given as the source filed them. No stated cut-off is given here; in the data, active = GI50 up to about 1.1 µM and inactive = higher.

What was measured:
Assay in all cases: inhibition of tumour cell growth, NCI panel, 48 h
[1] = system: DMS-114
[2] = system: SW-620
[3] = system: NCI-H460
[4] = system: NCI-H23
[5] = system: HOP-92
[6] = system: OVCAR-5
[7] = system: MOLT-4
[8] = system: HL-60
[9] = system: SNB-78
[10] = system: SK-OV-3
[11] = system: XF498
[12] = system: SN12C
[13] = system: SF-539
[14] = system: U-251
[15] = system: M19-MEL
[16] = system: DMS-273
[17] = system: SNB-75
[18] = system: A498
[19] = system: SNB-19
[20] = system: HOP-18
[21] = system: KM-20L2
[22] = system: HOP-62
[23] = system: KM12
[24] = system: COLO 205
[25] = system: OVCAR-8
[26] = system: CAKI-1
[27] = system: SF-295
[28] = system: OVCAR-3
[29] = system: NCI-H226
[30] = system: UACC-257
[31] = system: OVCAR-4
[32] = system: HCC 2998
[33] = system: SK-MEL-28
[34] = system: A549
[35] = system: CCRF-CEM
[36] = system: HT-29
[37] = system: SK-MEL-5
[38] = system: K562
[39] = system: RXF 393
[40] = system: HCT-116
[41] = system: EKVX
[42] = system: IGROV-1
[43] = system: UO-31
[44] = system: Malme-3M
[45] = system: NCI-H522
[46] = system: UACC-62
[47] = system: LOX IMVI
[48] = system: HCT-15
[49] = system: SK-MEL-2
[50] = system: MCF7
[51] = system: SF-268
[52] = system: RPMI-8226
[53] = system: NCI/ADR-RES
[54] = system: DLD-1
[55] = system: LXFL 529
[56] = system: SR
[57] = system: 786-0
[58] = system: ACHN
[59] = system: M14
[60] = system: TK-10

CCOC(=O)CNC(=O)N(CC)C12CC3CC(CC(C3)C1)C2
GI50 [1]: 107 µM (inactive) | GI50 [2]: 145 µM (inactive) | GI50 [3]: 154 µM (inactive) | GI50 [4]: 159 µM (inactive) | GI50 [5]: 60.1 µM (inactive) | GI50 [6]: 161 µM (inactive) | GI50 [7]: 119 µM (inactive) | GI50 [8]: 107 µM (inactive) | GI50 [9]: 166 µM (inactive) | GI50 [10]: 123 µM (inactive) | GI50 [11]: 125 µM (inactive) | GI50 [12]: 147 µM (inactive) | GI50 [13]: 123 µM (inactive) | GI50 [14]: 119 µM (inactive) | GI50 [15]: 153 µM (inactive) | GI50 [16]: 132 µM (inactive) | GI50 [17]: 131 µM (inactive) | GI50 [18]: 115 µM (inactive) | GI50 [19]: 153 µM (inactive) | GI50 [20]: 179 µM (inactive) | GI50 [21]: 117 µM (inactive) | GI50 [22]: 128 µM (inactive) | GI50 [23]: 125 µM (inactive) | GI50 [24]: 110 µM (inactive) | GI50 [25]: 150 µM (inactive) | GI50 [26]: 147 µM (inactive) | GI50 [27]: 136 µM (inactive) | GI50 [28]: 114 µM (inactive) | GI50 [29]: 146 µM (inactive) | GI50 [30]: 122 µM (inactive) | GI50 [31]: 188 µM (inactive) | GI50 [32]: 158 µM (inactive) | GI50 [33]: 206 µM (inactive) | GI50 [34]: 166 µM (inactive) | GI50 [35]: 135 µM (inactive) | GI50 [36]: 132 µM (inactive) | GI50 [37]: 104 µM (inactive) | GI50 [38]: 122 µM (inactive) | GI50 [39]: 152 µM (inactive) | GI50 [40]: 121 µM (inactive) | GI50 [41]: 157 µM (inactive) | GI50 [42]: 184 µM (inactive) | GI50 [43]: 149 µM (inactive) | GI50 [44]: 133 µM (inactive) | GI50 [45]: 123 µM (inactive) | GI50 [46]: 97.5 µM (inactive) | GI50 [47]: 115 µM (inactive) | GI50 [48]: 115 µM | GI50 [49]: 103 µM (inactive) | GI50 [50]: 148 µM (inactive) | GI50 [51]: 143 µM (inactive) | GI50 [52]: 115 µM (inactive) | GI50 [53]: 151 µM (inactive) | GI50 [54]: 34.7 µM (inactive)

CN(C)c1ccc(/C=C2\CCc3ccccc3C2=O)cc1Br
GI50 [2]: 34.2 µM (inactive) | GI50 [3]: > 100 µM (inactive) | GI50 [4]: 68.7 µM (inactive) | GI50 [5]: 62.7 µM (inactive) | GI50 [6]: > 100 µM (inactive) | GI50 [7]: 32.6 µM (inactive) | GI50 [8]: 21.2 µM (inactive) | GI50 [9]: 39.4 µM (inactive) | GI50 [10]: > 100 µM (inactive) | GI50 [11]: 94.6 µM (inactive) | GI50 [12]: > 100 µM (inactive) | GI50 [13]: > 100 µM (inactive) | GI50 [14]: 71.8 µM (inactive) | GI50 [15]: 49.4 µM (inactive) | GI50 [55]: 48.3 µM (inactive) | GI50 [16]: 34.7 µM (inactive) | GI50 [17]: > 100 µM (inactive) | GI50 [19]: > 100 µM (inactive) | GI50 [20]: > 100 µM (inactive) | GI50 [21]: 21.6 µM (inactive) | GI50 [56]: 29.2 µM (inactive) | GI50 [22]: > 100 µM (inactive) | GI50 [23]: 38.5 µM (inactive) | GI50 [24]: 68.9 µM (inactive) | GI50 [25]: 41.1 µM (inactive) | GI50 [26]: 36.4 µM (inactive) | GI50 [27]: > 100 µM (inactive) | GI50 [28]: 49 µM (inactive) | GI50 [29]: > 100 µM (inactive) | GI50 [30]: 43.6 µM (inactive) | GI50 [31]: 83.9 µM (inactive) | GI50 [32]: > 100 µM (inactive) | GI50 [57]: > 100 µM (inactive) | GI50 [33]: 71.1 µM (inactive) | GI50 [34]: 51.3 µM (inactive) | GI50 [35]: 36 µM (inactive) | GI50 [36]: 33.1 µM (inactive) | GI50 [58]: > 100 µM (inactive) | GI50 [37]: 25.8 µM (inactive) | GI50 [38]: 33.7 µM (inactive) | GI50 [39]: 75.5 µM (inactive) | GI50 [40]: 37.3 µM (inactive) | GI50 [41]: 99.5 µM (inactive) | GI50 [59]: 53.6 µM (inactive) | GI50 [43]: > 100 µM (inactive) | GI50 [44]: 42.8 µM (inactive) | GI50 [45]: 23.2 µM (inactive) | GI50 [60]: > 100 µM (inactive) | GI50 [46]: 40.2 µM (inactive) | GI50 [47]: 32.7 µM (inactive) | GI50 [48]: 71.1 µM | GI50 [49]: 48.5 µM (inactive) | GI50 [51]: 65 µM (inactive) | GI50 [52]: 24.8 µM (inactive) | GI50 [54]: 55.5 µM (inactive)
